Where a name gives a salt, the structure may show the parent alone.
Tests used:
[1] = system: TG3 immunoreactivity in OKA treated MSN1a cells; assay: Inhibition of TG3 immunoreactivity in OKA treated MSN1a cells (ELISA); assay type: cell-based, human; details: TG3 antibody; for IC50: Homo sapiens, 1 μM OKA, 0-64 μM drug, 2 hrs at 37° C.
Experimental: This assay can thus be used to determine whether a drug is capable of preventing or intervening in AD by attenuating the production of abnormally phosphorylated paired helical filament epitopes associated with AD. To determine whether a drug is capable of preventing or intervening in AD activity, the MSN1a cells containing tau and associated proteins are treated with OKA capable of greatly increasing immunoreactivity of the MSN1a cells with AD specific monoclonal antibodies. Then, either prior to or concomitantly with OKA treatment, a compound of the present invention is added to the culture. If the compound prevents the induction of the AD epitopes in the MSN1a cells treated with OKA, then it is said to have anti-AD activity. If the AD-specific antibodies are highly reactive with the neuroblastoma cells following OKA treatment in the presence of compound, then the compound is said to be ineffectual against AD.
The MSN1a human neuroblastoma line was subcloned from a population of MSN cells obtained from the laboratory of Dr. Peter Davies (Albert Einstein College of Medicine, New York, N.Y.). Cells were grown and maintained in flasks in RPMI 1640 medium, supplemented with 15% fetal calf serum, 100 U/ml penicillin, 100 U/ml Streptomycin, 0.5 ug/ml fungizone under 7.5% CO2 at 37° C.
Stock solutions of drugs were prepared by dissolving the anhydrous powders to final concentrations of either 10 or 20 mM in 50% aqueous or 100% dimethyl sulfoxide (DMSO), respectively. Working solutions of drugs were prepared by dilution of the stock solutions with Kreb's Ringer in Hepes buffer (KRH) (128 mM NaCl, 5 mM KCl, 2.5 mM CaCl2 1.2 mM MgSO4, 1 mM Na2 HPO4, 10 mM dextrose, 20 mM Hepes, pH 7.4). OKA is maintained as a 1 mM stock solution in DMSO prior to dilution to 4 μM in KRH.
MSN cells grown in 225 cm^2 flasks are removed from the incubator, their medium decanted and replaced with 50 ml pre-warmed KRH. The cells are harvested by scraping prior to sedimentation at 1000 rpm for 5 min. The supernatants are discarded and the cell pellets are resuspended, the cells counted and diluted to a density of 2×10^4 cells/[…]. The cells are then plated in a 96 well plate at 50 μl/well and 25 μl of 4 μM OKA and 25 μl of drug are then added to the appropriate wells; the entire 96 well plate is then incubated for 2 hrs at 37° C. Depending on the dilution of drug added, this yields individual wells containing 1 μM OKA, 0-64 μM drug and 2×10^4 cells in 0.26% DMSO in KRH. The incubation is terminated by the addition of 20 μl of 6X extraction buffer and immediate freezing at -80° C. for at least one hr. The 6X extraction buffer contains: 25 mM Tris-HCl, pH 7.6, 150 mM NaCl, 5 mM EDTA, 24 mM δ-glycerol phosphate, 10 μg/ml APMSF (4-amidinophenylmethane-sulfonyl flouride), and 2.5 μg/ml each of leupeptin, aprotinin, and pepstatin. The plates are thawed in a 37° C. water bath and 20 μl of cell lysate is added to a replica well in an ELISA plate that already contains 80 μl of coating buffer (15 mM Na2 CO3 and 35 mM NaHCO3, pH 9.6). The plates are allowed to coat overnight at 4° C. The plates are washed four times with deionized water and then blocked for 30 min at 37° C. with 200 μl/well pre-warmed 1% bovine serum albumin in 10 mM Tris-HCl, pH 7.4, 150 mM NaCl, 3 mM NaN3 (BSA-TBS). After the blocking solution is removed, 100 μl/well of an appropriate dilution of pre-warmed primary antibody (eg., TG3 or PHF-1) in BSA-TBS is added and incubated at 37° C. for 30 min. Incubation is terminated by washing four times in deionized water at which time 100 μl of an appropriate dilution of pre-warmed secondary antibody (conjugated to alkaline phosphatase) in BSA-TBS is added to each well in the ELISA plate. Incubation is performed for 30 min at 37° C. followed by washing 4 times with deionized water. […] of prewarmed chromogenic substrate (1 mg/ml p-nitrophenyl phosphate in 10% diethanolamine, 3 mM NAN3, 0.5 mM MgCl2, pH 9.8) is added and the plate incubated for 30 min at 37° C. […]

[2] = system: PHF-1 and TG3 epitopes in MSN1a cells; assay: Generation of Alzheimer brain specific epitopes in MSN1a cells; assay type: cell-based, human; details: epitopes absent or very low in untreated cells
Experimental: Conditions were established which led to hyperphosphorylation of the proteins known to be involved in PHF formation. Using monoclonal antibodies PHF-1 and TG3 generated to human PHF preparations, the effects of a variety of manipulations of the phosphorylation state of these proteins were tested. These tests required that most of the abnormal epitopes recognized by these monoclonal antibodies in the human Alzheimer brain should be generated in the MSN1a cells. […] These epitopes are either absent or present at a very low level in untreated MSN1a cells.
Shown in FIG. 2A are bar graphs (percent of AD) of the ELISA immunoreactivity of brain preparations (AD or normal) to either PHF-1 or TG3. Shown in FIG. 2B are bar graphs (percent of MSN+) of the ELISA immunoreactivity of MSN1 a cell preparations (minus or plus okadaic acid) to either PHF-1 or TG3. The MSN1a cell preparations plus vs minus okadaic acid closely parallel the AD vs normal brain preparations. […] The cell culture system according to the invention in which epitopes characteristic of PHF can be readily generated and subsequently recognized by the specific Alzheimer brain specific antibodies provides an assay suitable for screening compounds for their ability to block the production of these phosphorylated epitopes.

[3] = system: paired helical filament epitopes (TG3) in human brain tissue; assay: Direct ELISA with TG3 antibody on post-mortem brain tissue of patients (second retrospective study); assay type: in vivo; details: chlorpromazine treated patients (Rx), N 51, summed absorbance
Description: In a subsequent study, 51 additional patients were identified and the analysis was repeated as above using the TG3 antibody in an ELISA format. The results, summarized in Table 1, clearly reproduce and confirm the first retrospective study. Immunohistopathological studies carried out on several brain regions from these patients were consistent with these ELISA results. Taken together, these two studies provide evidence of the therapeutic benefit of chlorpromazine in AD and validate the use of the MSN1a model for the identification of therapeutically useful compounds for the treatment of AD.
*Signal is calculated by summing the means of duplicate absorbance
readings (direct ELISA using TG3 antibody) for 8 dilutions of all lysates
prepared by one to two serial dilutions.

[4] = system: PHF epitope (ADAP) levels in human brain tissue; assay: ALZ-EIA of PHF epitope (ADAP) levels in post-mortem brain tissue of chronically treated patients (first retrospective study); assay type: in vivo; details: chronically chlorpromazine treated patients (Rx), Brodman areas 10 and 38, ALZ-EIA
Experimental: FIG. 4A is a chart showing relative ADAP concentrations in Brodman Area 10 in Alzheimer's Disease patients, normal controls and patients treated with chloropromazine (Rx).
FIG. 4B is a chart showing relative ADAP concentrations in Brodman Area 38 in Alzheimer's Disease patients, normal controls and patients treated with chloropromazine (Rx).
Frontal and cortical brain tissue specimens obtained at autopsy from patients chronically treated with chlorpromazine were analyzed using the ALZ-EIA method previously described (Ghanbari, H A, et al, JAMA, 263, 2907, 1990). The results are shown in FIGS. 4A and 4B frontal (Broadman area 10) and temporal (Broadman area 38) regions, respectively. The brain tissue (post-mortem) from approximately the same number of (age matched) normal controls and Alzheimer's Disease patients were also analyzed and are presented in these figures as negative and positive controls (for normal and AD, respectively).

[5] = system: paired helical filament epitopes (PHF-1) in MSN1a cells; assay: Western blot of PHF-1 immunoreactivity in MSN1a cells treated with okadaic acid; assay type: cell-based, human
Experimental: FIG. 3 is a western blot showing PHF-1 immunoreactivity in lysates from control and chlorpromazine treated MSN cells treated with okadaic acid.
These compounds are effective at micromolar concentrations, with increased potency being evident when cells are treated prior to the addition of okadaic acid. The effective concentrations appear to be in the range at which these drugs are present in the brain following chronic treatment of psychiatric patients (Svendsen, CN, Psychopharmacology, 90, 316-321, 1986).
To determine the effect of chlorpromazine on the paired helical filament epitopes associated with AD, MSN1a cells expressing paired helical filament epitopes were incubated with […] chlorpromazine (CPZ) or a 0.2% DMSO vehicle control for 2 hours at 37° C. The cells were isolated by centrifugation, boiled for 10 minutes and […] protein from the resulting heat stable supernatants were loaded per lane on an SDS-PAGE gel. The gel was electrophoretically transferred to nitrocellulose membrane and then immunostained with PHF-1. […] The use of the MSN1a cell culture model for screening of novel compounds for therapeutic activity in AD is, therefore, quite warranted.

SMILES	IC50 [1] [µM]	also measured
O=C(CCN1CCOCC1)c1cccc(Cl)c1 [Example 38, 1-(m-Chlorophenyl)-3-(4'-morpholinyl)-1-propanone hydrochloride]	5.8	–
CN1CCN(CCC(=O)c2ccccc2)CC1 [Example 1, 1-Phenyl-3-(4'-methyl-1'-piperazinyl)-1-propanone dihydrochloride]	12.4	–
O=C(CCN1CCOCC1)c1cc(Cl)ccc1Cl [Example 17, 1-(2",5"-Dichlorophenyl)-3-(4'-morpholinyl)-1-propanone hydrochloride]	15.8	–
CN1CCN(CCC(=O)c2ccccc2F)CC1 [Example 23, 1-(o-Fluorophenyl)-3-(4'-methyl-1'-piperazinyl)-1-propanone dihydrochloride]	13.2	–
C=C1[C@@H](O)[C@@H]2O[C@]3(CC[C@H](/C=C/[C@@H](C)[C@@H]4CC(C)=C[C@@]5(O[C@H](C[C@@](C)(O)C(=O)O)CC[C@H]5O)O4)O3)CC[C@H]2O[C@@H]1[C@@H](O)C[C@H](C)[C@H]1O[C@@]2(CCCCO2)CC[C@H]1C [okadaic acid]	–	generation of the epitopes associated with Alzheimer brain specific monoclonal antibodies [2]: found to generate the epitopes
CC1CN(CCC(=O)c2ccccc2)C(C)CN1CCC(=O)c1ccccc1 (centres unmarked) [Example 45, 1,4-Bis-(3'-Phenylpropane-3'-one-1'-yl)-2,5-dimethylpiperazine dihydrochloride]	11.4	–
CN(C)CCCN1c2ccccc2Sc2ccc(Cl)cc21 [Chlorpromazine, chlorpromazine]	~70	SIGNAL ± SEM, Temporal ([3]; Normal 0.00 ± 0.00, AD 17.55 ± 2.82): 0.16 ± 0.11; SIGNAL ± SEM, Frontal ([3]; Normal 0.12 ± 0.12, AD 16.54 ± 2.59): 0.12 ± 0.11; PHF epitope levels in brain [4]: low PHF epitope levels similar to normal controls; inhibition of production of aberrant phosphorylated epitopes in the MSN1a cell culture model (in words) [1]: effective in inhibiting the production of these aberrant phosphorylated epitopes; production of paired helical filament epitopes ([5]; 100 mM chlorpromazine, 2 hours at 37° C., PHF-1 immunostain): greatly decreased the production of paired helical filament epitopes; inhibition of expression of PHF epitopes upon treatment of MSN1a cells with okadaic acid ([5]; AD specific antibodies, FIG. 3): markedly inhibit the expression of PHF epitopes
Cc1cccc(C(=O)CCN2CCOCC2)c1 [Example 9, 1-(m-Methylphenyl)-3-(4'-morpholinyl)-1-propanone hydrochloride]	5.4	–
COc1ccccc1C(=O)CCN1CCOCC1 [Example 13, 1-(o-Methoxyphenyl)-3-(4'-morpholinyl)-1-propanone hydrochloride]	9.1	–
CC1CN(CCC(=O)c2cccc([N+](=O)[O-])c2)CC(C)N1 (centres unmarked) [Example 26, 1-(m-Nitrophenyl)-3-(2',6'-dimethyl-4'-piperazinyl)-1-propanone dihydrochloride]	7.3	–
O=C(CCN1CCOCC1)c1cccc([N+](=O)[O-])c1 [Example 30, 1-(m-Nitrophenyl)-3-(4'-morpholinyl)-1-propanone hydrochloride]	5.9	–
CCCN1CCN(CCC(=O)c2cccc(C)c2)CC1 [Example 5, 1-(m-Methylphenyl)-3-(4'-propyl-1'-piperazinyl)-1-propanone dihydrochloride]	15.8	–
CN(c1cccc(C(=O)CCN2CCOCC2)c1)S(C)(=O)=O [Example 34, 1-[m-(N-Methyl-N-methylsulfonylamino)phenyl]-3-(4'-morpholinyl)-1-propanone hydrochloride]	7.5	–
O=C(CCN1CCOCC1)c1ccc(Br)cc1 [Example 42, 1-(p-Bromophenyl)-3-(4'-morpholinyl)-1-propanone hydrochloride]	6.4	–

Source: patent US5705501A, “Certain substituted 1-aryl-3-morpholinopropanones to treat Alzheimer's Disease” (priority 1994, dated 1998)
